Source: patent publication US20220132846A1, “1-PYRIDYL-PYRAZOLYL AMIDE COMPOUNDS AND PREPARATION AND USES THEREOF” (HUNAN RESEARCH INSTITUTE OF CHEMICAL INDUSTRY CO., LTD., priority 2019, published 2022)
Read-outs that look alike come from different tables or passages of the source.

Tests used:
Format in all cases: in vivo
[1] = test system: Armyworm (Mythimna separata (Walker)); assay: Test against armyworm, Potter tower method; settings: for mortality at 12.5 µg/mL / mortality at 50 µg/mL / mortality at 500 µg/mL: Mythimna separata, read-out: Activity (mortality) level against armyworm; for Activity against armyworm, further screening (in words): compared with chlorantraniliprole (D1)
Method in brief: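 Third-instar larvae, ten per dish on corn leaf fragments, were sprayed in a Potter tower with 1 mL of compound in DMF diluted in 0.2% Tween 80, in triplicate. Mortality was scored after 72 h and reported as mean mortality against a solvent blank.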

[2] = test system: Spodoptera litura (Fabricius); assay: Test against Spodoptera litura, leaf disc dip; settings: after 72 hours; for Activity against Spodoptera litura (in words): second-instar larvae
Procedure: (§1) The test compound was dissolved in an appropriate solvent such as N,N-dimethylformamide, and then diluted with 0.2% aqueous solution of Tween 80 to the desired concentration, Those without the test compounds were set as blank controls, the treatments were replicated 3 times. The cabbage leaves were perforated to get 18 mm diameter leaf discs by a hole puncher, 5 leaf discs were dipped in the test solution for 10 seconds and then put into a Petri dish (diameter 90 mm) padded with moisturizing filter paper, after air-drying, the leaf discs were infested with no less than ten second-instar larvae of test insects which were starved for 4 hours, and then the dish was covered and placed in a chamber for culture. After 72 hours, the number of dead insects was investigated, the mortality was calculated, and the regression equation, correlation coefficient (r) and the median lethal concentration (LC50) were obtained using Probit analysis method.

[3] = test system: Diamondback moth (Plutella xylostella (Linnaeus)); assay: Test against diamondback moth, leaf disc dip; settings: second-instar larvae, after 72 hours
Procedure: as §1

Aphis fabae = assay: Test against aphid, leaf dip method (Aphis fabae); settings: foliar; for mortality at 12.5 µg/mL: 12.5 mg/L; for mortality at 12.5 µg/mL / mortality at 50 µg/mL / mortality at 200 µg/mL / mortality at 500 µg/mL: read-out: Activity (mortality) level against Aphis fabae; for mortality at 200 µg/mL: 200 mg/L
Method in brief: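 Horsebean seedlings carrying at least twenty 3-day-old Aphis fabae dipped 5 seconds in compound solutions (DMF, diluted in 0.2% aqueous Tween 80), three replicates with solvent blank. Live and dead insects counted after 24 hours.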

[4] = 12.5 mg/L, third-instar larvae, after 72 hours
[5] = 50 mg/L, third-instar larvae, after 72 hours
[6] = 500 mg/L, third-instar larvae, after 72 hours

Row | SMILES | mortality at 12.5 µg/mL [1, 4] [%] | mortality at 50 µg/mL [1, 5] [%] | mortality at 500 µg/mL [1, 6] [%] | Activity against armyworm, further screening (in words) [1] | Median lethal concentration LC50 against Spodoptera litura, compared with D1 ([2]; same conditions) | Activity against Spodoptera litura (in words) [2] | Activity against diamondback moth (in words) [3] | mortality at 12.5 µg/mL (Aphis fabae; after 24 hours) [%] | mortality at 50 µg/mL (Aphis fabae; 50 mg/L, after 24 hours) [%] | mortality at 200 µg/mL (Aphis fabae; after 24 hours) [%] | mortality at 500 µg/mL (Aphis fabae; 500 mg/L, after 24 hours) [%] | LC50 (Aphis fabae; further test, read-out: LC50 against Aphis fabae) [µg/mL] | Activity against armyworm ([1]; 1.25 mg/L) | mortality at 12.5 µg/mL ([1]; 72 h) [%] | mortality at 50 µg/mL ([1]; 72 h) [%] | mortality at 500 µg/mL ([1]; 72 h) [%] | mortality at 50 µg/mL (Aphis fabae; 24 h) [%] | mortality at 500 µg/mL (Aphis fabae; 24 h) [%]
1 | CCN(CC)C(=O)c1cc(Cl)cc(Cl)c1N(C)C(=O)c1cc(Br)nn1-c1ncccc1Cl [Compound 15, N-[2,4-dichloro-6-[(diethylamino)carbonyl]phenyl]-N-methyl-1-(3-chloro-2-pyridinyl)-3-bromo-1H-pyrazole-5-carboxamide] | 90 to 100 | 90 to 100 | 90 to 100 | excellent activity | lower than that of chlorantraniliprole (D1) | high activity at very low concentration | high activity at very low concentration | 90 to 100 | 90 to 100 | 90 to 100 | 90 to 100 | < 1 | – | – | – | – | – | –
2 | CCN(C)C(=O)c1cc(Cl)cc(Br)c1N(C)C(=O)c1cc(Br)nn1-c1ncccc1Cl [Compound 32, N-[2-bromo-4-chloro-6-[(methyl(ethyl)amino)carbonyl]phenyl]-N-methyl-1-(3-chloro-2-pyridinyl)-3-bromo-1H-pyrazole-5-carboxamide] | 90 to 100 | 90 to 100 | 90 to 100 | excellent activity | – | high activity at very low concentration | high activity at very low concentration | 90 to 100 | 90 to 100 | 90 to 100 | 90 to 100 | – | – | – | – | – | – | –
3 | CNC(=O)c1cc(Cl)cc(C)c1NC(=O)c1cc(Br)nn1-c1ncccc1Cl [Compound D1, chlorantraniliprole, reference compound] | – | – | – | – | – | high activity at very low concentration | high activity at very low concentration | – | – | – | – | – | less than 50% | 90 to 100 | 90 to 100 | 90 to 100 | 0 to 50 | 90 to 100
